The text below walks through data of US11261160B2, “Process for the preparation of N-(4-(6,7-dimethoxyquinolin-4-yloxy)phenyl)-N′-(4-fluorophenyl)cyclopropane-1, 1-dicarboxamide, (2S)-hydroxybutanedioate and its polymorphs thereof” (MSN LABORATORIES PRIVATE LIMITED, R&D CENTER, priority 2016, dated 2022).

The structures appear in SMILES notation.

Data set [1] is described as follows: Thermal stability at 60° C. (P-XRD). The conditions noted are these: heating in a vacuum dryer at 60° C. for 24 hours; 3.0 gms sample. The data set is classed as physicochemical. The procedure: Thermal Stability at 60° C.:
Samples of crystalline form-S of Cabozantinib (S)-malate (3.0 gms) is subjected to heating in a vacuum dryer at 60° C. for 24 hours.
(§1) PXRD analysis of compounds produced by the present invention were carried out using BRUKER IDS ADVANCE/AXS X-Ray diffractometer using Cu Kα radiation of wavelength 1.5406 A° and continuous scan speed of 0.03°/min.

A short description of data set [2]: Hygroscopic stability for 24 hours (P-XRD). The data set is classed as physicochemical. The note with it: kept in the desiccator for 24 hours; 3.0 gms sample. The procedure:
Hygroscopic Stability for 24 Hours:
Samples of crystalline form-S of Cabozantinib (S)-malate (3.0 gms) is kept in the desiccator for 24 hours.
as §1

As to `COc1cc2nccc(Oc3ccc(NC(=O)C4(C(=O)Nc5ccc(F)cc5)CC4)cc3)c2cc1OC.O=C(O)C[C@H](O)C(=O)O` [N-(4-(6,7-dimethoxyquinolin-4-yloxy)phenyl)-N′-(4-fluorophenyl)cyclopropane-1,1-dicarboxamide (S)-malate], the “Thermal stability at 60° C. by P-XRD pattern” value in data set [1] is given as “stable”. Moreover, the “Hygroscopic stability for 24 hours by P-XRD pattern” value in data set [2] was “stable”.
